# Reference: patent publication US10030025B2, “Substituted [1,2,4]triazolo[4,3-a]pyrazines as selective NK-3 receptor antagonists” (EUROSCREEN SA, priority 2013, dated 2018)
# Experiments:
# [1] = system: circulating levels of luteinizing hormone (LH); assay: Castrated male rat model, circulating luteinizing hormone (LH); format: in vivo; details: castrated male SD rats, single oral dose less than or equal to 30 mg/kg, p<0.05
# Experimental: Castrated male rat model to assess the effect of compound of invention on circulating levels of luteinizing hormone (LH)
# The effect of compounds of the invention to inhibit luteinizing hormone (LH) secretion is determined by the following biological studies.
# In humans and rodents, castration is well-precedented to permit heightened, persistent GnRH signaling and consequent elevation of circulating LH. Thus, a castrated rat model is used to provide a broad index for measurement of LH inhibition as a marker of test compound inhibition of the GnRH signaling pathway.
# Castrated adult male Sprague-Dawley (SD) rats (150-175 g) were purchased from Janvier (St Berthevin, France). All animals were housed 2 per cage in a temperature-controlled room (22±2° C.) and 50±5% relative humidity with a 12 hour/12 hour light/dark cycles (lights off at 6h00 pm). The animals were allowed 3 weeks of postoperative recovery prior to study. Animals were handled on a daily basis. Standard diet and tap water were provided ad libitum. Animal cage litters were changed once a week. On the study day, animals were acclimated to the procedure room for a period of one hour prior to the initiation of the experiment.
# Compounds of the invention were formulated in 0.5% methyl cellulose.
# After basal sampling (T0) a single dose of compounds of the invention or vehicle was administrated orally to rats. Blood samples were then collected at several time points post dosing (45, 90, 150, 300 and 420 minutes). Blood samples were obtained via tail vein bleed, drawn into EDTA-containing tubes and centrifuged immediately. Plasma samples were collected and stored in a −80° C. freezer until assayed. Serum LH levels were determined using radioimmunoassay kit from RIAZEN—Rat LH, Zentech (Liège, Belgium). Baseline was defined as the initial basal blood sample.
# plasma testosterone = assay: Plasma testosterone in gonad intact male rats; format: in vivo, rat; details: gonad intact male SD rats, 3 mg/kg single oral administration, vs vehicle, over the test period
# Experimental: The study was designed to evaluate the effect of compounds of the invention on testosterone circulating levels following oral administration at 3 mg/kg on SD gonad intact male rats.
# Two groups of non-fasted rats (male, Sprague-Dawley, 200 to 225 g; n=4 rats/group) with jugular vein cannulation, were dosed via a single oral administration of compounds of the invention at 3 mg/kg. The control group was dosed with the vehicle. Compounds of the invention were prepared in a dose formulation of pyrogen-free water with 0.5% methylcellulose. Blood samples were collected via the catheter implanted in the jugular vein at pre-determined intervals using EDTA-3K as anti-coagulant. Samples were chilled and rapidly processed by centrifugation to obtain corresponding plasma samples. Testosterone hormone levels were determined by RIA performed on plasma samples collected for all the groups at 5 minutes before administration (basal time), and at 45, 90, 150, 300, 480 minutes and 24 hours after dosing.
# plasma estradiol levels = assay: Estradiol circulating level in female rats; format: in vivo, rat; details: adult female rats, 10 mg/kg b.i.d. oral, 10 days, two consecutive estrous cycles
# Experimental: The aim of this study was to evaluate the effect of compounds of the invention on plasma estradiol levels following oral administration at 10 mg/kg (b.i.d.) for a period of 10 days in female rats.
# Two groups of adult, female rats (Sprague-Dawley, ˜320 g) were treated in-phase with their individual estrous cycles. Thus, treatment was started in the proestrus phase (coincident with peak estradiol levels, as shown on Day 1 in FIG. 3) and rats were dosed twice daily (˜9h30 and 17h30) by oral administration either with a compound of the invention at 10 mg/kg or with the vehicle for the control group. Compounds of the invention were prepared in a dose formulation of pyrogen-free water with 0.5% methylcellulose. Estradiol levels were determined for all groups by ELISA performed on plasma samples derived from blood collections taken at 30 minutes before the daily, 9h30 test article administration on all days presented in FIG. 3.
# body temperature = assay: Thermoregulation in ovariectomized (OVX) ewes; format: in vivo, ewe; details: 1 mg/kg intravenous bolus
# Excerpt: After 4 months recovery, animals were acclimatised to housing in single pens for a period of 7 days with ad libitum access to water and […] lucerne hay. One day prior to experimentation, the animals received a jugular vein cannula ([…], Tuta Laboratories, Lane Cove, Australia). The cannulae were kept patent with heparinised saline. On the day of the experiment, compound no 5 of the present invention was formulated in physiological saline with 9% 2-hydroxypropyl-β-cyclodextrin at a concentration of 2 mg/mL. Compound no 5 (1 mg/kg, N=5) or vehicle (N=5) was administered at 11h00 by intravenous bolus injection at a dose volume of 0.5 mL/kg through the jugular cannula and the injected material was flushed into the animal with 5 mL of heparinised saline. Animals were fed at 12h00. Rectal temperatures were monitored with a probe at hourly intervals throughout the experiment, starting at 7h40 and concluding at 15h40. […] However, this pyrogenic response to feeding in ovarectomized ewes was not observed in any animals treated with compound no 5. […] Graphical data presented as mean±SEM for vehicle-treated versus compound no 5-treated ewes (N=5/group). Statistical analyses performed by 2-way ANOVA followed by Sidak's Multiple Comparisons Test between treatment groups at the indicated time interval, *p<0.05.
Structure (SMILES),Effect on circulating LH levels [1],other results
"Cc1nsc(-c2nnc3n2CCN(C(=O)c2ccc(F)c(F)c2F)[C@@H]3C)n1 [Compound 8, (R)-(8-methyl-3-(3-methyl-1,2,4-thiadiazol-5-yl)-5,6-dihydro-[1,2,4]triazolo[4,3-a]pyrazin-7(8H)-yl)(2,3,4-trifluorophenyl)methanone]",significantly suppressed circulating LH levels,
"Cc1nsc(-c2nnc3n2CCN(C(=O)c2ccc(Cl)c(Cl)c2)[C@@H]3C)n1 [Compound 1, (R)-(3,4-dichlorophenyl)(8-methyl-3-(3-methyl-1,2,4-thiadiazol-5-yl)-5,6-dihydro-[1,2,4]triazolo[4,3-a]pyrazin-7(8H)-yl)methanone]",significantly suppressed circulating LH levels,
"CCc1noc(-c2nnc3n2CCN(C(=O)c2ccc(F)cc2)[C@@H]3C)n1 [Compound 13, (R)-(3-(3-ethyl-1,2,4-oxadiazol-5-yl)-8-methyl-5,6-dihydro-[1,2,4]triazolo[4,3-a]pyrazin-7(8H)-yl)(4-fluorophenyl)methanone]",significantly suppressed circulating LH levels,
"Cc1nsc(-c2nnc3n2CCN(C(=O)c2ccc(F)c(F)c2)[C@@H]3C)n1 [Compound 9, (R)-(3,4-difluorophenyl)(8-methyl-3-(3-methyl-1,2,4-thiadiazol-5-yl)-5,6-dihydro-[1,2,4]triazolo[4,3-a]pyrazin-7(8H)-yl)methanone]",significantly suppressed circulating LH levels,
"Cc1nsc(-c2nnc3n2CCN(C(=O)c2ccc(Cl)c(F)c2)[C@@H]3C)n1 [Compound 4, (R)-(4-chloro-3-fluorophenyl)(8-methyl-3-(3-methyl-1,2,4-thiadiazol-5-yl)-5,6-dihydro-[1,2,4]triazolo[4,3-a]pyrazin-7(8H)-yl)methanone]",significantly suppressed circulating LH levels,
"CCc1nsc(-c2nnc3n2CCN(C(=O)c2ccc(F)cc2)[C@@H]3C)n1 [Compound 2, (R)-(3-(3-ethyl-1,2,4-thiadiazol-5-yl)-8-methyl-5,6-dihydro-[1,2,4]triazolo[4,3-a]pyrazin-7(8H)-yl)(4-fluorophenyl)methanone]",significantly suppressed circulating LH levels,
"Cc1nsc(-c2nnc3n2CCN(C(=O)c2ccccc2)[C@@H]3C)n1 [Compound 20, (R)-(8-methyl-3-(3-methyl-1,2,4-thiadiazol-5-yl)-5,6-dihydro-[1,2,4]triazolo[4,3-a]pyrazin-7(8H)-yl)(phenyl)methanone]",significantly suppressed circulating LH levels,
"CCc1noc(-c2nnc3n2CCN(C(=O)c2ccc(-c4cccs4)cc2)[C@@H]3C)n1 [Compound 30, (R)-(3-(3-ethyl-1,2,4-oxadiazol-5-yl)-8-methyl-5,6-dihydro-[1,2,4]triazolo[4,3-a]pyrazin-7(8H)-yl)(4-(thiophen-2-yl)phenyl)methanone]",significantly suppressed circulating LH levels,
"Cc1nsc(-c2nnc3n2CCN(C(=O)c2ccc(F)cc2)[C@@H]3C)n1 [Compound 5, (R)-(4-fluorophenyl)(8-methyl-3-(3-methyl-1,2,4-thiadiazol-5-yl)-5,6-dihydro-[1,2,4]triazolo[4,3-a]pyrazin-7(8H)-yl)methanone]",significantly suppressed circulating LH levels,Effect on plasma testosterone level (plasma testosterone): significantly suppressed plasma testosterone level; Effect on estradiol levels (plasma estradiol levels): significantly decreased estradiol levels; Pyrogenic response to feeding (body temperature): not observed
